In PubChem BioAssay (NCI) one finds GI50 and TGI data, which are given here for seven compounds.

SMILES strings stand for the structures. Values joined by “and” are separate entries in the source; they are usually repeats but may differ in a detail not shown here. Identical values can stand only once.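 Values below derive from 48-hour exposures of cells grown in 96-well plates, with endpoints linearly interpolated between the two concentrations bracketing the appropriate inhibition level. Here, GI50 denotes the concentration required for 50% inhibition of growth. The concentration for full growth arrest is given as TGI.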 A value given as a limit tells only on which side of the number the result lay.

Test systems include HOP-92 NSCLC; LOX IMVI melanoma; MALME-3M melanoma; MDA-MB-435; MOLT-4 leukemia; NCI-H226 lung; NCI-H23 lung; OVCAR-3 ovarian; OVCAR-4 ovarian; SK-MEL-2 melanoma.
Holding throughout (assay): NCI anticancer screen, dose series, 48 h

In the case of `COc1cc(/C=C/c2ccnc3ccccc23)cc(OC)c1OC`, the GI50 was 2.07 µM with HOP-92 NSCLC; 5.25 µM in the test on LOX IMVI melanoma; 3.88 µM in the test with MALME-3M melanoma; 0.355 µM with MDA-MB-435; 2.47 µM in the test on MOLT-4 leukemia; 1.67 µM in the test on OVCAR-3 ovarian. Besides, the GI50 with OVCAR-4 ovarian is 4.41 µM. The TGI in the test on HOP-92 NSCLC was 9.08 µM; with LOX IMVI melanoma, 29.3 µM and > 100 µM; in the test with MALME-3M melanoma, 42.5 µM and > 100 µM; in the test with MDA-MB-435, 1.87 µM and 1.85 µM; in the test on MOLT-4 leukemia, 13.4 µM and 26.2 µM; in the test on NCI-H226 lung it was 50.9 µM. The TGI in the test with NCI-H23 lung was 6.92 µM and 9.64 µM; in the test on OVCAR-3 ovarian it was 14.6 µM and 4.71 µM; in the test on OVCAR-4 ovarian, 45.5 µM and > 100 µM; in the test on SK-MEL-2 melanoma, > 100 µM.
Take `C(=C\c1ccc(OCC2CO2)cc1)/C1=NCOC1` (configuration not stated): the GI50 with HOP-92 NSCLC is 1.41 µM; in the test with LOX IMVI melanoma, 3.35 µM; with MALME-3M melanoma, 19.9 µM; with MDA-MB-435 it was 11 µM; in the test on MOLT-4 leukemia, 3.24 µM; in the test on NCI-H226 lung, 16.4 µM. Moreover, the GI50 with NCI-H23 lung is 10.7 µM; in the test with OVCAR-3 ovarian, 7.87 µM; in the test on OVCAR-4 ovarian it was 15.4 µM; with SK-MEL-2 melanoma, 10 µM. Moreover, the TGI was 13.2 µM with HOP-92 NSCLC; 13.6 µM with LOX IMVI melanoma; 58.7 µM with MALME-3M melanoma; 37.3 µM in the test with MDA-MB-435; 16.8 µM in the test on MOLT-4 leukemia; 34.5 µM with NCI-H226 lung. The TGI with NCI-H23 lung was found to be 40.2 µM; with OVCAR-3 ovarian, 29.1 µM; with OVCAR-4 ovarian, 31.9 µM; in the test with SK-MEL-2 melanoma it was 36 µM.
With `COc1ccc2nc3ccccc3c(NCc3ccccc3)c2c1`, the GI50 is 2.33 µM with HOP-92 NSCLC; 1.61 µM in the test with LOX IMVI melanoma; 1.75 µM with MALME-3M melanoma; 1.91 µM in the test on MDA-MB-435; 2.76 µM in the test on MOLT-4 leukemia; 2.79 µM in the test with NCI-H226 lung. Further, the GI50 was 1.95 µM in the test with NCI-H23 lung, 2.65 µM in the test with OVCAR-3 ovarian, 2.37 µM in the test with OVCAR-4 ovarian and 2.2 µM in the test on SK-MEL-2 melanoma. Moreover, the TGI came out at 7.88 µM in the test with HOP-92 NSCLC; 3.29 µM with LOX IMVI melanoma; 3.22 µM in the test on MALME-3M melanoma; 3.93 µM in the test with MDA-MB-435; 11.2 µM with MOLT-4 leukemia; 8.69 µM in the test on NCI-H226 lung. Also, the TGI turned out to be 5.52 µM in the test on NCI-H23 lung, 6.89 µM in the test on OVCAR-3 ovarian, 7.58 µM in the test on OVCAR-4 ovarian and 4.9 µM in the test with SK-MEL-2 melanoma.
With `OCC1OC(n2cnc3c(NCc4ccco4)ncnc32)C(O)C1O` (configuration not stated), the GI50 is 0.442 µM with HOP-92 NSCLC; 0.338 µM in the test on LOX IMVI melanoma; 5.91 µM with MALME-3M melanoma; 2.08 µM in the test on MDA-MB-435; 0.585 µM in the test on MOLT-4 leukemia; 12 µM with NCI-H226 lung. Moreover, the GI50 is 2.87 µM with NCI-H23 lung, 1.34 µM in the test with OVCAR-3 ovarian, 2.8 µM in the test with OVCAR-4 ovarian and 5.43 µM in the test on SK-MEL-2 melanoma. Besides, the TGI in the test with HOP-92 NSCLC was 5.1 µM; with LOX IMVI melanoma, 1.48 µM; with MALME-3M melanoma, 48.1 µM; with MDA-MB-435 it was 15.1 µM; in the test on MOLT-4 leukemia, 6.25 µM; in the test on NCI-H226 lung, > 71.2 µM. In addition, the TGI came to 31.8 µM in the test with NCI-H23 lung, 3.12 µM with OVCAR-3 ovarian, 18.8 µM in the test on OVCAR-4 ovarian and 31.6 µM with SK-MEL-2 melanoma.
Consider `O=C(Nc1ccc(Cl)cc1)N1CCN(c2ccc3nncn3n2)CC1`, for which the GI50 with HOP-92 NSCLC was 31.7 µM; in the test with LOX IMVI melanoma it was 92.4 µM; in the test with MALME-3M melanoma it was 89.1 µM; with MDA-MB-435 it was 64.3 µM; with MOLT-4 leukemia, 23.8 µM; in the test on NCI-H226 lung it was 68.4 µM. Moreover, the GI50 with NCI-H23 lung was 42.3 µM; in the test with OVCAR-3 ovarian it was 62.4 µM; in the test on OVCAR-4 ovarian it was 51.6 µM; in the test on SK-MEL-2 melanoma it was 65.4 µM. In addition, the TGI in the test on HOP-92 NSCLC was > 100 µM; in the test on LOX IMVI melanoma, > 100 µM; in the test with MALME-3M melanoma, > 100 µM; with MDA-MB-435, > 100 µM; in the test with MOLT-4 leukemia, 69.6 µM; with NCI-H226 lung it was > 100 µM. Also, the TGI in the test with NCI-H23 lung, in the test with OVCAR-3 ovarian, in the test with OVCAR-4 ovarian and with SK-MEL-2 melanoma was > 100 µM throughout.
For `Cc1nn(-c2ccccc2)c2nc(C)n(-c3ccc(Br)cc3)c(=O)c12`, the GI50 in the test with HOP-92 NSCLC was 0.579 µM; with LOX IMVI melanoma, 0.51 µM; with MALME-3M melanoma, 12.1 µM; in the test on MDA-MB-435, 0.226 µM; in the test with MOLT-4 leukemia, 0.53 µM; in the test with NCI-H226 lung, 1.01 µM. Also, the GI50 in the test on NCI-H23 lung is 0.823 µM; in the test on OVCAR-3 ovarian, 0.405 µM; in the test with OVCAR-4 ovarian it was 1.56 µM; in the test on SK-MEL-2 melanoma, 0.654 µM. Moreover, the TGI was 68 µM with HOP-92 NSCLC; > 100 µM with LOX IMVI melanoma; 76.9 µM with MALME-3M melanoma; 0.684 µM in the test on MDA-MB-435; > 100 µM with MOLT-4 leukemia; > 100 µM with NCI-H226 lung. For the same compound, the TGI is > 100 µM in the test with NCI-H23 lung, > 36.7 µM in the test with OVCAR-3 ovarian, > 100 µM with OVCAR-4 ovarian and > 100 µM with SK-MEL-2 melanoma.
For `CCC(C(=O)[C@@H](C)[C@@H](O)[C@H](C)[C@@H]1O[C@@H]([C@@H](CC)C(=O)ONC(=O)c2ccccc2)CC[C@@H]1C)[C@H]1O[C@]2(C=CC(=O)[C@]3(CC[C@@](C)([C@H]4CC[C@](O)(CC)[C@H](C)O4)O3)O2)[C@H](C)C[C@@H]1C` (some centres not stated), the GI50 in the test with HOP-92 NSCLC is 0.141 µM; with LOX IMVI melanoma, 0.316 µM; with MALME-3M melanoma, 0.168 µM; with MDA-MB-435, 1.11 µM; in the test on MOLT-4 leukemia, 0.729 µM; with NCI-H226 lung, 0.749 µM. Besides, the GI50 was 0.175 µM with NCI-H23 lung, 0.0849 µM in the test on OVCAR-3 ovarian, 1.07 µM in the test on OVCAR-4 ovarian and 1.07 µM with SK-MEL-2 melanoma. The TGI in the test with HOP-92 NSCLC worked out at 1.87 µM; with LOX IMVI melanoma, 1.84 µM; in the test with MALME-3M melanoma, 1.06 µM; in the test with MDA-MB-435, 2.88 µM; in the test with MOLT-4 leukemia, 3.32 µM; in the test with NCI-H226 lung it was 3.56 µM. For the same compound, the TGI in the test on NCI-H23 lung is 2.08 µM; in the test with OVCAR-3 ovarian it was 1.29 µM; in the test on OVCAR-4 ovarian, > 40.1 µM; in the test on SK-MEL-2 melanoma it was 2.91 µM.
